Here are results for 33 compounds from ChEMBL document CHEMBL3351264, “Piperazinyl-oxadiazoles as selective sphingosine-1-phosphate receptor agonists” (Bioorg Med Chem Lett, 2014).

Some results are limits rather than exact numbers.

The target of data set [1] is T1, Sphingosine 1-phosphate receptor 3 (Homo sapiens, UniProt Q99500). Description: Agonist activity at human S1P3 receptor expressed in human EDG3-bla U2OS cells after 18 hrs by beta-arrestin recruitment assay. It is filed as cell-based.
T1 sequence (Q99500 whole entry): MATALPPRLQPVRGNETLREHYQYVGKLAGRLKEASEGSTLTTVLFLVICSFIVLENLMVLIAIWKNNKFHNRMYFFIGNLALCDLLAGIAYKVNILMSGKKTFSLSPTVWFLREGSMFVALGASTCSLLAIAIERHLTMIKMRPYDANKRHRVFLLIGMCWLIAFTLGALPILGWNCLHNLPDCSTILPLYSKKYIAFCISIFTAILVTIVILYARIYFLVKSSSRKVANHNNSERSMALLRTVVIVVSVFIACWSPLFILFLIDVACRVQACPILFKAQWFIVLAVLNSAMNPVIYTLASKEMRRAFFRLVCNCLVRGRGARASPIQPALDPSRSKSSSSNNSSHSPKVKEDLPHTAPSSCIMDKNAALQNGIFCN
The target in data set [2] is Sphingosine 1-phosphate receptor 1 (Homo sapiens, UniProt P21453). Description: Agonist activity at human S1P1 receptor expressed in human EDG1-bla U2OS cells after 18 hrs by beta-arrestin recruitment assay. It is filed as cell-based.
Sphingosine 1-phosphate receptor 1, sequence (P21453 whole entry): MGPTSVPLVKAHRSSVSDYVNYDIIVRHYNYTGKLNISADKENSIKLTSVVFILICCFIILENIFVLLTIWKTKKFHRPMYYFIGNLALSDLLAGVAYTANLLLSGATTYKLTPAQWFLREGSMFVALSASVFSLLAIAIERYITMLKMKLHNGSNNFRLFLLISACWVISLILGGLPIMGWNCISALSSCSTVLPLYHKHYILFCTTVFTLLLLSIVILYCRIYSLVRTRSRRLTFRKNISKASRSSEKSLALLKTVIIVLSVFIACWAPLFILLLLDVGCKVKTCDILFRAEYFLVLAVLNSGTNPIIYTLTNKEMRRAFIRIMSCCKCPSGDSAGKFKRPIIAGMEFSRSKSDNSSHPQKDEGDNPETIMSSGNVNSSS
Data set [3] addresses T1, Sphingosine 1-phosphate receptor 3. Description: Partial agonist activity at human S1P3 receptor expressed in human EDG3-bla U2OS cells after 18 hrs by beta-arrestin recruitment assay. It is filed as cell-based.
The species entered for data set [4] is Homo sapiens. Description: Selectivity ratio of EC50 for human S1P3 receptor to EC50 for human S1P1 receptor.
Data set [5] has as its system Plasma. Description: Drug level in rat plasma treated with 3 mg/kg, po. On the set-up: dose 3 mg/kg, route oral. Conditions: in vivo. It is filed as ADME, organism-based.
For data set [6], the system named is Plasma. Description: Drug metabolism in rat plasma assessed as 2-amino-3-(5-chloro-4-(3-(4-(cyclopentanecarbonyl)piperazin-1-yl)-1,2,4-oxadiazol-5-yl)-2-fluorophenoxy)propyl dihydrogen phosphate formation at 3 mg/kg, po. It is filed as ADME, organism-based. More on the design: dose 3 mg/kg, route oral. To be noted: in vivo.
Data set [7] has as its system Rattus norvegicus. The data set is described as follows: Toxicity in Lewis rat assessed as reduction in circulating lymphocyte count at 3 mg/kg, po after 4 hrs. Type of data set: organism-based. On the set-up: dose 3 mg/kg, route oral. To be noted: in vivo.

Regarding `CC1(C)CC(C(=O)N2CCN(c3noc(-c4cc(F)c(OC[C@@H]5COC(=O)N5)cc4Cl)n3)CC2)C1`, the EC50 in data set [1] and in data set [2] was > 10000 nM each time.

In data set [2], `CCC(C)(C)C(=O)N1CCN(c2noc(-c3ccccc3OC)n2)CC1` registered a half-maximal effective concentration (EC50) of 3600 nM.

With `CC1(C)CC(C(=O)N2CCN(c3noc(-c4cc(F)c(OCCCO)cc4Cl)n3)CC2)C1`, the results for the EC50 in data set [1] and in data set [2] were > 10000 nM and 1100 nM, respectively.

`N[C@@H](CO)COc1cc(Cl)c(-c2noc(C3CCN(C(=O)C4CCCC4)CC3)n2)cc1F`: the EC50 in data set [1] is > 10000 nM; in data set [2], 45 nM.

Regarding `CC1(C)CC(C(=O)N2CCN(c3noc(-c4cc(F)c(OC[C@@H](O)CO)cc4Cl)n3)CC2)C1`, the EC50 in data set [1] was > 10000 nM; in data set [2] it was 1100 nM.

On to `N[C@@H](CO)COc1cc(Cl)c(-c2nnc(N3CCN(C(=O)C4CCCC4)CC3)s2)cc1F`, for which the %max in data set [3] was found to be 45%. The figures for the EC50 in data set [1] and in data set [2] were 410 nM and 0.5 nM, respectively.

Regarding `CCc1cccnc1C(=O)N1CCN(c2noc(-c3cc(F)c(OC[C@@H](N)CO)cc3Cl)n2)CC1`, the half-maximal effective concentration (EC50) in data set [1] was > 10000 nM; in data set [2] it was 5.3 nM.

`N[C@@H](CO)COc1cc(Cl)c(-c2nnc(N3CCN(C(=O)c4cccc(Cl)c4)CC3)s2)cc1F` showed a %max in data set [3] of 48%. Also, the EC50 was 380 nM in data set [1] and 2.3 nM in data set [2].

`N[C@@H](CO)COc1c(Cl)cc(-c2nc(N3CCN(C(=O)c4cccc(Cl)c4)CC3)no2)cc1Cl`: the EC50 in data set [1] was > 10000 nM; in data set [2] it was > 5400 nM.

On to `N[C@@H](CO)COc1cc(Cl)c(-c2noc(N3CCN(C(=O)C4CCCC4)CC3)n2)cc1F`, for which the concentration for a half-maximal effect (EC50) in data set [1] was > 10000 nM; in data set [2], 55 nM.

On to `CCC(C)(C)C(=O)N1CCN(c2noc(-c3cc(F)c(OCC(N)CO)cc3Cl)n2)CC1` (configuration not stated), for which, in data set [2], a half-maximal effect (EC50) was put at 46 nM.

For `CC1(C)CC(C(=O)N2CCN(c3noc(-c4cc(F)c(OC[C@@H](N)CO)cc4Cl)n3)CC2)C1`, in data set [3], the %max amounted to 63%. Also, the half-maximal effective concentration (EC50) in data set [1] was determined as 450 nM; in data set [2], 3.1 nM.

Consider `N[C@H](COc1cc(Cl)c(-c2nc(N3CCN(C(=O)C4CCCC4)CC3)no2)cc1F)COP(=O)(O)O`, for which the concentration for a half-maximal effect (EC50) was 940 nM in data set [1] and 0.5 nM in data set [2]. For the same compound, in data set [4], the Ratio EC50 came out at 2000. Also, in data set [5], the Drug metabolism entry is on record as “metabolite_detected”.

On to `O=C(O)C1CN(Cc2cc(Cl)c(-c3nc(N4CCN(C(=O)C5CCCC5)CC4)no3)cc2F)C1`, for which the EC50 in data set [1] was > 10000 nM; in data set [2], 2100 nM.

Take `N[C@@H](CO)COc1cc(Cl)c(-c2nc(N3CCN(C(=O)C4CCCC4)CC3)no2)cc1F`: the Drug metabolism result in data set [6] is “metabolite_detected”. For the same compound, the EC50 was > 10000 nM in data set [1] and 1.7 nM in data set [2]. Moreover, the Activity entry in data set [7] is “Toxic”.

`N[C@H](CO)COc1cc(Cl)c(-c2nc(N3CCN(C(=O)C4CCCC4)CC3)no2)cc1F`: the EC50 in data set [1] is > 10000 nM; in data set [2] it was 420 nM.

Turning to `N[C@@H](CO)COc1cc(Cl)c(-c2nc(N3CCN(C(=O)c4ccccn4)CC3)no2)cc1F`, the EC50 in data set [1] was > 10000 nM; in data set [2], 92 nM.

As to `N[C@@H](CO)COc1cc(Cl)c(-c2nc(N3CCN(C(=O)c4ccccc4)CC3)no2)cc1F`, the EC50 in data set [1] was > 10000 nM; in data set [2], 6.5 nM.

Take `CC(C)(C(=O)N1CCN(c2noc(-c3cc(F)c(OC[C@@H](N)CO)cc3Cl)n2)CC1)C(F)(F)F`: the %max in data set [3] came to 44%. The figures for the concentration for a half-maximal effect (EC50) in data set [1] and in data set [2] were 4700 nM and 9.8 nM, respectively.

In the case of `C[C@H](O)COc1cc(Cl)c(-c2nc(N3CCN(C(=O)C4CC(C)(C)C4)CC3)no2)cc1F`, the concentration giving a half-maximal response (EC50) is > 10000 nM in data set [1] and 1100 nM in data set [2].

For `CC1(C)CC(C(=O)N2CCN(c3noc(-c4cc(F)c(OCC(=O)O)cc4Cl)n3)CC2)C1`, the EC50 in data set [1] and in data set [2] was > 10000 nM in each case.

For `CC1(C)CC(C(=O)N2CCN(c3noc(-c4cc(F)c(OCCO)cc4Cl)n3)CC2)C1`, the EC50 in data set [1] is > 10000 nM; in data set [2] it was 910 nM.

In the case of `N[C@@H](CO)COc1cc(Cl)c(-c2nc(N3CCN(C(=O)c4cccc(Cl)c4)CC3)no2)cc1F`, the EC50 in data set [1] is > 10000 nM; in data set [2] it was 4.1 nM.

In the case of `O=C(O)CCOc1cc(Cl)c(-c2nc(N3CCN(C(=O)C4CCCC4)CC3)no2)cc1F`, the EC50 is > 10000 nM in data set [1] and 240 nM in data set [2].

In the case of `N[C@@H](CO)COc1c(Cl)cc(-c2nc(N3CCN(C(=O)C4CCCC4)CC3)no2)cc1Cl`, the concentration for a half-maximal effect (EC50) in data set [1] is > 10000 nM; in data set [2], 1600 nM.

Regarding `N[C@@H](CO)COc1cc(Cl)c(-c2nc(N3CCN(C(=O)C4CCCCC4)CC3)no2)cc1F`, the 50% effective concentration (EC50) was > 10000 nM in data set [1] and 1.2 nM in data set [2].

On to `N[C@H](CO)COc1cc(Cl)c(-c2nc(N3CCN(C(=O)C4CCC4)CC3)no2)cc1F`, for which the figures for the concentration for a half-maximal effect (EC50) in data set [1] and in data set [2] were > 10000 nM and 1300 nM, respectively.

In the case of `N[C@@H](CO)COc1cc(Cl)c(-c2nc(N3CCN(C(=O)C4CCC4)CC3)no2)cc1F`, the EC50 is > 10000 nM in data set [1] and 17 nM in data set [2].

As to `N[C@H](CO)COc1cc(Cl)c(-c2nc(N3CCN(C(=O)c4cccc(Cl)c4)CC3)no2)cc1F`, the concentration for a half-maximal effect (EC50) in data set [1] is > 10000 nM; in data set [2], 2400 nM.

As to `N[C@@H](CO)COc1c(Cl)cc(-c2nc(N3CCN(C(=O)C4CCCCC4)CC3)no2)cc1Cl`, the concentration giving a half-maximal response (EC50) in data set [1] and in data set [2] was > 10000 nM throughout.

Regarding `CC1(C)CC(C(=O)N2CCN(c3noc(-c4cc(F)c(OC[C@H](O)CO)cc4Cl)n3)CC2)C1`, the EC50 in data set [1] is > 10000 nM; in data set [2], 1200 nM.

As for `N[C@@H](CO)COc1cc(Cl)c(-c2noc(N3CCN(C(=O)c4cccc(Cl)c4)CC3)n2)cc1F`, the concentration for a half-maximal effect (EC50) in data set [1] is > 10000 nM; in data set [2], 12 nM.

Consider `CC1(C)CC(C(=O)N2CCN(c3noc(-c4cc(F)c(OCCC(=O)O)cc4Cl)n3)CC2)C1`, for which the values for the EC50 in data set [1] and in data set [2] were > 10000 nM and 2700 nM, respectively.
